Measurements as given in patent US20120010075A1 (priority 2009, published 2012).

tested on: Leptosphaeria nodorum (LEPTNO); experiment: In vitro fungitoxicity of hydrazones with and without copper towards Leptosphaeria nodorum (Example 26); assay type: cell-based; conditions: Parastagonospora nodorum, 72 h, compound 0.05 μg/mL, copper-minus medium, 72 h at 25° C.; read-out: LEPTNO % Inhn. Minus Copper Observed

Row | SMILES | inhibition of growth at 0.05 µg/mL [%]
1 | C/C(=N\NC(=O)c1ccccc1Cl)c1cc(Cl)cc(Cl)c1O [Example 67] | 2.6
2 | O=C(N/N=C/c1cc(Cl)cc(Cl)c1O)c1ccc(Cl)cc1 [Example 68] | 15.8
3 | C/C(=N\NC(=O)c1cccc(Cl)c1)c1cc(Cl)cc(Cl)c1O [Example 135] | 0.2
4 | C/C(=N\NC(=O)c1ccc(Cl)cc1)c1cc(Cl)cc(Cl)c1O [Example 136] | 9.7
5 | C/C(=N\NC(=O)c1ccccc1C)c1cc(Cl)cc(Cl)c1O [Example 137] | 4.5
6 | C/C(=N\NC(=O)Cc1ccccc1)c1cc(Cl)cc(Cl)c1O [Example 140] | 6.7
7 | O=C(N/N=C/c1cc(Cl)cc(Br)c1O)c1ccccc1 [Example 151] | 11.8
8 | O=C(N/N=C/c1cc(Cl)cc(Br)c1O)c1ccc(Cl)cc1 [Example 159] | 11.4
9 | O=C(N/N=C/c1cc(Cl)ccc1O)c1ccc(Cl)cc1 [Example 172] | 13.2
10 | O=C(N/N=C/c1cc(Cl)cc(Br)c1O)c1ccccc1O [Example 195] | 19.2
11 | COc1cc(Br)cc(/C=N/NC(=O)c2cccc(Br)c2)c1O [Example 204] | 7.3
12 | C/C(=N\NC(=O)c1ccccc1)c1ccccc1O [Example 230] | 9

same assay, conditions: compound 0.05 μg/mL, copper-plus medium (CuCl2.2H2O), 72 h at 25° C.

Row | SMILES | LEPTNO % Inhn. Plus Copper Observed [%]
13 | C/C(=N\NC(=O)c1ccccc1Cl)c1cc(Cl)cc(Cl)c1O [Example 67] | 91.8
14 | O=C(N/N=C/c1cc(Cl)cc(Cl)c1O)c1ccc(Cl)cc1 [Example 68] | 97.0
15 | C/C(=N\NC(=O)c1cccc(Cl)c1)c1cc(Cl)cc(Cl)c1O [Example 135] | 98.6
16 | C/C(=N\NC(=O)c1ccc(Cl)cc1)c1cc(Cl)cc(Cl)c1O [Example 136] | 98.6
17 | C/C(=N\NC(=O)c1ccccc1C)c1cc(Cl)cc(Cl)c1O [Example 137] | 98.5
18 | C/C(=N\NC(=O)Cc1ccccc1)c1cc(Cl)cc(Cl)c1O [Example 140] | 96.7
19 | O=C(N/N=C/c1cc(Cl)cc(Br)c1O)c1ccccc1 [Example 151] | 97.6
20 | O=C(N/N=C/c1cc(Cl)cc(Br)c1O)c1ccc(Cl)cc1 [Example 159] | 98.5
21 | O=C(N/N=C/c1cc(Cl)ccc1O)c1ccc(Cl)cc1 [Example 172] | 97.9
22 | O=C(N/N=C/c1cc(Cl)cc(Br)c1O)c1ccccc1O [Example 195] | 97.9
23 | COc1cc(Br)cc(/C=N/NC(=O)c2cccc(Br)c2)c1O [Example 204] | 95.5
24 | C/C(=N\NC(=O)c1ccccc1)c1ccccc1O [Example 230] | 98.3

tested on: Phytophthora infestans; experiment: not given; assay type: in vivo, Phytophthora infestans on tomato; conditions: hydrazone 50 ppm + 50 μM CuCl2.2H2O, applied 24 h before inoculation, assessed 7 days after inoculation, tomato

Row | SMILES | TLB % Control [%]
25 | C/C(=N\NC(=O)c1ccccc1Cl)c1cc(Cl)cc(Cl)c1O [Example 67] | 75.0
26 | O=C(N/N=C/c1cc(Cl)cc(Cl)c1O)c1ccc(Cl)cc1 [Example 68] | 75.9
27 | C/C(=N\NC(=O)c1cccc(Cl)c1)c1cc(Cl)cc(Cl)c1O [Example 135] | 96.0
28 | C/C(=N\NC(=O)c1ccc(Cl)cc1)c1cc(Cl)cc(Cl)c1O [Example 136] | 95.0
29 | C/C(=N\NC(=O)c1ccccc1C)c1cc(Cl)cc(Cl)c1O [Example 137] | 74.0
30 | C/C(=N\NC(=O)Cc1ccccc1)c1cc(Cl)cc(Cl)c1O [Example 140] | 81.0
31 | O=C(N/N=C/c1cc(Cl)cc(Br)c1O)c1ccccc1 [Example 151] | 83.0
32 | O=C(N/N=C/c1cc(Cl)cc(Br)c1O)c1ccc(Cl)cc1 [Example 159] | 91.9
33 | O=C(N/N=C/c1cc(Cl)ccc1O)c1ccc(Cl)cc1 [Example 172] | 27.1
34 | O=C(N/N=C/c1cc(Cl)cc(Br)c1O)c1ccccc1O [Example 195] | 89.5
35 | COc1cc(Br)cc(/C=N/NC(=O)c2cccc(Br)c2)c1O [Example 204] | 77.2
36 | C/C(=N\NC(=O)c1ccccc1)c1ccccc1O [Example 230] | 65.0

tested on: Phytophthora capsici; experiment: In vitro fungitoxicity of hydrazones with and without copper towards Phytophthora capsici (Example 28, Table 3); assay type: cell-based; conditions: 0.050 μg/mL; copper-plus AS medium (CuCl2, 50 μM); 48 h

Row | SMILES | % Inhn Plus copper Observed [%]
37 | C/C(=N\NC(=O)Cc1ccccc1)c1cc(Cl)cc(Cl)c1O [Example 140] | 91.4
38 | COc1cc(Br)cc(/C=N/NC(=O)c2cccc(Br)c2)c1O [Example 204] | 81.9
39 | C/C(=N\NC(=O)c1ccccc1)c1ccccc1O [Example 230] | 93.6

same assay, conditions: Phytophthora capsici; 0.050 μg/mL; copper-minus AS medium; 48 h; read-out: % Inhn Minus copper Observed

Row | SMILES | inhibition of growth at 0.05 µg/mL [%]
40 | C/C(=N\NC(=O)Cc1ccccc1)c1cc(Cl)cc(Cl)c1O [Example 140] | 0
41 | COc1cc(Br)cc(/C=N/NC(=O)c2cccc(Br)c2)c1O [Example 204] | 6
42 | C/C(=N\NC(=O)c1ccccc1)c1ccccc1O [Example 230] | 5.8

tested on: Ustilago maydis; experiment: In vitro fungitoxicity of hydrazones with and without copper towards Ustilago maydis (Example 29, Table 4); assay type: cell-based; conditions: 1 μg/mL; copper-plus medium (CuCl2, 10 μM); 48 h

Row | SMILES | % Inhn. Plus copper Observed [%]
43 | C/C(=N\NC(=O)Cc1ccccc1)c1cc(Cl)cc(Cl)c1O [Example 140] | 95.7
44 | COc1cc(Br)cc(/C=N/NC(=O)c2cccc(Br)c2)c1O [Example 204] | 77.0
45 | C/C(=N\NC(=O)c1ccccc1)c1ccccc1O [Example 230] | 94.4

same assay, conditions: Mycosarcoma maydis; 1 μg/mL; copper-minus medium; 48 h; read-out: % Inhn. Minus copper Observed

Row | SMILES | inhibition of growth at 1 µg/mL [%]
46 | C/C(=N\NC(=O)Cc1ccccc1)c1cc(Cl)cc(Cl)c1O [Example 140] | 0
47 | COc1cc(Br)cc(/C=N/NC(=O)c2cccc(Br)c2)c1O [Example 204] | 0
48 | C/C(=N\NC(=O)c1ccccc1)c1ccccc1O [Example 230] | 11.9

tested on: Septoria tritici isolate USA-184; experiment: In vitro fungitoxicity of hydrazones with and without copper towards Septoria tritici (Example 30, Table 5); assay type: cell-based; conditions: Zymoseptoria tritici; 0.05 μg/mL; Colby formula; CuCl2; read-out: % Inhibition Plus copper Predicted

Row | SMILES | inhibition at 0.05 µg/mL [%]
49 | C/C(=N\NC(=O)Cc1ccccc1)c1cc(Cl)cc(Cl)c1O [Example 140] | 0
50 | COc1cc(Br)cc(/C=N/NC(=O)c2cccc(Br)c2)c1O [Example 204] | 0
51 | C/C(=N\NC(=O)c1ccccc1)c1ccccc1O [Example 230] | 43.6

same assay, conditions: Zymoseptoria tritici; 0.05 μg/mL; copper-minus medium; 90 h; read-out: % Inhibition Minus copper Observed

Row | SMILES | inhibition at 0.05 µg/mL [%]
52 | C/C(=N\NC(=O)Cc1ccccc1)c1cc(Cl)cc(Cl)c1O [Example 140] | 0
53 | COc1cc(Br)cc(/C=N/NC(=O)c2cccc(Br)c2)c1O [Example 204] | 0
54 | C/C(=N\NC(=O)c1ccccc1)c1ccccc1O [Example 230] | 43.6

same assay, conditions: Zymoseptoria tritici; 0.05 μg/mL; copper-plus medium CuCl2; 90 h; read-out: % Inhibition Plus copper Observed

Row | SMILES | inhibition at 0.05 µg/mL [%]
55 | C/C(=N\NC(=O)Cc1ccccc1)c1cc(Cl)cc(Cl)c1O [Example 140] | 96.6
56 | COc1cc(Br)cc(/C=N/NC(=O)c2cccc(Br)c2)c1O [Example 204] | 84.4
57 | C/C(=N\NC(=O)c1ccccc1)c1ccccc1O [Example 230] | 96.7

tested on: Leptosphaeria nodorum (LEPTNO); experiment: Isolated metal-hydrazone complexes versus parent hydrazones, in vitro, Leptosphaeria nodorum (Example 31, Table 7); assay type: cell-based; conditions: Parastagonospora nodorum; 0.1 μg/mL; copper-minus medium; 72 h

Row | SMILES | inhibition at 0.1 µg/mL [%]
58 | C/C(=N\NC(=O)c1ccccc1Cl)c1cc(Cl)cc(Cl)c1O [Example 67] | 4.2
59 | O=C(N/N=C/c1cc(Cl)cc(Cl)c1O)c1ccc(Cl)cc1 [Example 68] | 7.1
60 | C/C(=N\NC(=O)c1cccc(Cl)c1)c1cc(Cl)cc(Cl)c1O [Example 135] | 20.6
61 | C/C(=N\NC(=O)c1ccc(Cl)cc1)c1cc(Cl)cc(Cl)c1O [Example 136] | 34.7
62 | C/C(=N\NC(=O)c1ccccc1C)c1cc(Cl)cc(Cl)c1O [Example 137] | 27.2
63 | O=C(N/N=C/c1cc(Cl)cc(Br)c1O)c1ccccc1 [Example 151] | 30.9
64 | O=C(N/N=C/c1cc(Cl)cc(Br)c1O)c1ccc(Cl)cc1 [Example 159] | 27.4
65 | O=C(N/N=C/c1cc(Cl)ccc1O)c1ccc(Cl)cc1 [Example 172] | 28.7
66 | O=C(N/N=C/c1cc(Cl)cc(Br)c1O)c1ccccc1O [Example 195] | 21.7

tested on: not given; experiment: not given; conditions: not given

Row | SMILES | melting point [°C]
67 | C/C(=N\NC(=O)c1cccc(Cl)c1)c1cc(Cl)cc(Cl)c1O [Example 135] | 245 to 246
68 | C/C(=N\NC(=O)c1ccc(Cl)cc1)c1cc(Cl)cc(Cl)c1O [Example 136] | 260 to 262
69 | C/C(=N\NC(=O)c1ccccc1C)c1cc(Cl)cc(Cl)c1O [Example 137] | 226 to 230
70 | C/C(=N\NC(=O)Cc1ccccc1)c1cc(Cl)cc(Cl)c1O [Example 140] | 199 to 204
71 | C/C(=N\NC(=O)c1ccccc1)c1ccccc1O [Example 230] | 185 to 187
